Source: US7098337B2, “1,2,3,4,9,9a-hexahydro-2,4a,5-triaza-fluorene and 1,2,3,4-tetrahydro-2,4a,5-triaza-fluorene derivatives” (priority 2002, dated 2006)

Columns and labels:
human 5-HT2B receptors = biological target: T1, human 5-HT2B receptors (Homo sapiens, UniProt P41595); assay: Binding to the 5-HT2B receptor, [3H]-5-HT, CHO cell line (Method (b)); conditions: human 5-HT2B in CHO cell line, read-out: Ki (2B)
T1 construct: expressed in transfected cells; host or cells: CHO cell line
Description: (§1) The binding of compounds of formula (I) to serotonin receptors was determined in vitro by standard methods. The activity of the test compounds was investigated in accordance with the assays given below.
Method (b): For the binding to the 5-HT2B receptor, the 5-HT2B receptors were radiolabeled with [^3H]-5-HT. The affinity of the compounds for human 5-HT2B receptors in a CHO cell line was determined according to the procedure of K. Schmuck, C. Ullmer, P. Engels and H. Lubbert, FEBS Lett., 1994, 342, 85–90.

5-HT2C receptor [1] = biological target: T2, 5-HT2C receptor (Homo sapiens, UniProt P28335); assay: Functional activity, FLIPR calcium assay, CHO cells expressing human 5-HT2C; format: cell-based; design: expressed in transfected cells; host or cells: CHO cells; conditions: for h5-HT2C Rel. Eff.: relative efficacy vs response to 10 μM 5-HT (defined as 100%)
T2 sequence (P28335 33-458): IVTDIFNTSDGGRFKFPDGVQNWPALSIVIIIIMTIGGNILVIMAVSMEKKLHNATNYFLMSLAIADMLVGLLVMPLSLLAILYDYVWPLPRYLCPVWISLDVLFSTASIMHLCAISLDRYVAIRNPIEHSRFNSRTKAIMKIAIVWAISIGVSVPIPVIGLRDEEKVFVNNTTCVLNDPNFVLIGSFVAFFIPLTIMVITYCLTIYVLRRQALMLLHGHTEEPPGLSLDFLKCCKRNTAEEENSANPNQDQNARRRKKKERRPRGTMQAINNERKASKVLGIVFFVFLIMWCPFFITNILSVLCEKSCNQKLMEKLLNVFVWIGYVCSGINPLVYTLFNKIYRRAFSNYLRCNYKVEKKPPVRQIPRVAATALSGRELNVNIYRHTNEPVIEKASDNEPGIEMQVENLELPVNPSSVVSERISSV
Description: (§2) The functional activity of compounds of formula (I) was assayed using a Fluorimetric Imaging Plate reader (FLIPR). CHO cells expressing the human 5-HT2C or human 5-HT2A receptors were counted and plated into standard 96 well microtitre plates on the day before testing to give a confluent monolayer. The cells were then dye loaded with the calcium sensitive dye, Fluo-3-AM. Unincorporated dye was removed using an automated cell washer to leave a total volume of 100 μL/well of assay buffer (Hanks balanced salt solution containing 20 mM Hepes and 2.5 mM probenecid). The drug (dissolved in 50 μL of the assay buffer) was added at a rate of 70 μL/sec to each well of the FLIPR 96 well plate during fluorescence measurements. The measurements were taken at 1 sec intervals and the maximum fluorescent signal was measured (approx 10–15 secs after drug addition) and compared with the response produced by 10 μM 5-HT (defined as 100%) to which it was expressed as a percentage response (relative efficacy). Dose response curves were constructed using Graphpad Prism (Graph Software Inc.).

5-HT2A receptor [2] = biological target: T3, 5-HT2A receptor (Homo sapiens, UniProt P28223); assay: Functional activity, FLIPR calcium assay, CHO cells expressing human 5-HT2A; format: cell-based; design: expressed in transfected cells; host or cells: CHO cells; conditions: for EC50: FLIPR, CHO cells expressing human 5-HT2A, read-out: h5-HT2A EC50; for h5-HT2A Rel. Eff.: relative efficacy vs response to 10 μM 5-HT (defined as 100%)
T3 sequence (P28223 whole entry): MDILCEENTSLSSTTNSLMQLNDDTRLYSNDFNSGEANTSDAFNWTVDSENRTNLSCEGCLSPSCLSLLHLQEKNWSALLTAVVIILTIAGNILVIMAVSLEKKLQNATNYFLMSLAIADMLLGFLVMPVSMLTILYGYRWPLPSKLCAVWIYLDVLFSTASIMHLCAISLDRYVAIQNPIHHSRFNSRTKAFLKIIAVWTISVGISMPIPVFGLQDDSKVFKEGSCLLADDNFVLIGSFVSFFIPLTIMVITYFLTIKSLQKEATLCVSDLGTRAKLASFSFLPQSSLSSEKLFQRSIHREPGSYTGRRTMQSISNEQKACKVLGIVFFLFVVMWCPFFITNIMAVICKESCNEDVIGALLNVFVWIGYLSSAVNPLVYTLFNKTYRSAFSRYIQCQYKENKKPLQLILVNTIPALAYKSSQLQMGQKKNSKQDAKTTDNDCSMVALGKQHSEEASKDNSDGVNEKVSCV
Description: as §2

5-HT2C receptor [3] = biological target: T2, 5-HT2C receptor; assay: Binding to the 5-HT2C receptor, [3H]-5-HT, CHO cell line (Method (a)); design: expressed in transfected cells; host or cells: CHO cell line
Description: as §1
Method (a): For the binding to the 5-HT2C receptor, the 5-HT2C receptors were radiolabeled with [^3H]-5-HT. The affinity of the compounds for 5-HT2C receptors in a CHO cell line was determined according to the procedure of D. Hoyer, G. Engel and H. O. Kalkman, European J. Pharmacol., 1985, 118, 13–23.

5-HT2A receptor [4] = biological target: T3, 5-HT2A receptor; assay: Binding to the 5-HT2A receptor, [125I]-DOI, CHO cell line (Method (c)); design: expressed in transfected cells; host or cells: CHO cell line; conditions: read-out: Ki (2A)
Description: as §1
Method (c): For the binding to the 5-HT2A receptor, the 5-HT2A receptors were radiolabeled with [^125I]-DOI. The affinity of the compounds for 5-HT2A receptors in a CHO cell line was determined according to the procedure of D. J. McKenna and S. J. Peroutka, J. Neurosci., 1989, 9, 3482–90.

T1 sequence (P41595 whole entry): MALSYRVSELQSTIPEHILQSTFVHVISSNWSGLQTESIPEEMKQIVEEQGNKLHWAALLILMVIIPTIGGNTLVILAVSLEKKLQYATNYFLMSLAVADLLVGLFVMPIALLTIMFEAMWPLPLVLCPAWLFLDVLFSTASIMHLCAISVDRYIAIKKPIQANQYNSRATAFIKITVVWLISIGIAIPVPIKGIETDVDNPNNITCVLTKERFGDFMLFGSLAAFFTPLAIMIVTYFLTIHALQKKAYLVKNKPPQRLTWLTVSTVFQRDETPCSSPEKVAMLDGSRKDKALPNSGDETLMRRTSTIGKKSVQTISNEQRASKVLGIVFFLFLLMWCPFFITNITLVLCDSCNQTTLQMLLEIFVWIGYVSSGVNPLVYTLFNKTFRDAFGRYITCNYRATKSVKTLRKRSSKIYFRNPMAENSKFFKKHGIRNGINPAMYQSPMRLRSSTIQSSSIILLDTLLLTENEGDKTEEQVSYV

SMILES | Ki (human 5-HT2B receptors) | EC50 (5-HT2C receptor [1]) | h5-HT2C Rel. Eff. (5-HT2C receptor [1]) | EC50 (5-HT2A receptor [2]) | h5-HT2A Rel. Eff. (5-HT2A receptor [2]) | Ki (5-HT2C receptor [3]) | Ki (5-HT2A receptor [4])
CCc1ccc2c(n1)N1[C@@H](CNC[C@H]1C)C2 [Example 9, (4R,9aR)-6-Ethyl-4-methyl-1,2,3,4,9,9a-hexahydro-2,4a,5-triaza-fluorene] | 0.271 µM | 0.0854 µM | 91.4% | 0.644 µM | 29.6% | 0.0165 µM | 0.212 µM
Cc1c2n(c3nc(Cl)ccc13)[C@H](C)CNC2 [Example 20, (R)-6-Chloro-4,9-dimethyl-1,2,3,4-tetrahydro-2,4a,5-triaza-fluorene] | 0.108 µM | 0.0076 µM | 93.3% | 0.0111 µM | 12.0% | 0.0051 µM | 0.178 µM
